Laboratory results taken from patent US6380177B1, “LPA analogs as agonists of the Edg2 LPA receptor” (Atairgin Technologies, Inc., priority 1999, dated 2002).
Entries after “also recorded” stand apart in the source; their conditions may differ.

Columns and labels:
[1] = target: T1, Edg2 receptor (Homo sapiens, UniProt Q92633); assay: FUS1::lacZ reporter assay in yeast expressing the Edg2 receptor; assay type: cell-based; settings: for activation of FUS1::lacZ by 18:1 analogs (FIG. 4): 200 μM LPA or LPA analog, 18:1 acyl LPA as 100%
T1 construct: expressed in transfected cells; host or cells: Saccharomyces cerevisiae JEY5 + pJE15
T1 sequence (Q92633 whole entry): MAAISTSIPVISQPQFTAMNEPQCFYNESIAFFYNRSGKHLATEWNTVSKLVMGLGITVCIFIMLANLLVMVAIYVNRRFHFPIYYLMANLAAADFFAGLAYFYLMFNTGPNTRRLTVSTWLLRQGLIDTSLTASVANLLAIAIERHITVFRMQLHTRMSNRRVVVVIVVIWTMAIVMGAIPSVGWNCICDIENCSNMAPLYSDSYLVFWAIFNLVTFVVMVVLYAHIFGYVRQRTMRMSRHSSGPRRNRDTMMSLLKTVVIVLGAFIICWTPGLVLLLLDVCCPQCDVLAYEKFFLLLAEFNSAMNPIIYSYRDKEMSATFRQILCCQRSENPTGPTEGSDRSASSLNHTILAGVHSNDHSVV
Excerpt: A yeast expressing the Edg2 receptor is one way to avoid such problems of multiple receptors. Edg2 has been functionally expressed in the yeast Saccharomyces cerevisiae and provides a facile system with which to analyze this particular receptor. Edg2 couples to the yeast pheromone response pathway selectively in response to exogenously added LPA and activates two easily assayed reporter genes, lacZ and HIS3, that are fused to the pheromone-inducible FUS1 promoter. […] Although the yeast assay is relatively insensitive to LPA compared with mammalian signaling events (the yeast assay has an E.C.50 of 20 μM), yeast offers the advantage of specificity; the induction of FUS1::lacZ by LPA is absolutely dependent on the Edg2 receptor being expressed.
LacZ assays in response to lysophosphatidic acid and LPA analogs- JEY5+pJE15 was grown on SC media containing either 2% galactose or 2% glucose lacking uracil to an approximate O.D. of 0.1-0.5 prior to the addition of lipid or α-factor. Acyl-LPA chain length analogs; 6:0, 10:0, 14:0, 16:0, 18:0, 18:1 and 24:1 (Avanti Polar Lipids) were stored dissolved in chloroform and dried down under vacuum immediately prior to experiments and resuspended in BBS/EDTA (50 mM NH4HCO3, 104 mM NaCl, 250 μM EDTA2Na pH 7.63) at 20 mM with sonication until the solution was clear. The other analogs that were custom synthesized for this report were stored in 100% ethanol at −20° C., dried and resuspended in BBS/EDTA immediately prior to use. Analogs not having a phosphate were stored in 100% DMSO and added directly to the yeast culture. […] Cells were grown for 7 hours prior to assaying at which time 100 μl of yeast culture were then added to […] assay buffer (60 mM Na2HPO4, 40 mM NaH2PO4, 10 mM KCl, 0.1 mM MgSO4, pH 7.0 plus 2.7 mL β-mercaptoethanol per liter) plus 50 μl 0.1% SDS+three drops Chloroform. Cells were vortexed for 10 seconds and incubated for 5 minutes at 28° C. 200 μl of 4mg/ml o-nitrophenol-β-D-galactopyranoside (ONPG, Sigma) was added and the reaction was incubated 30 minutes at 28° C. The assay was stopped by the addition of 500 μl 1M Na2CO3. Color development was measured at A420 and normalized to A600. Units were expressed as Miller Units. Competition assays between 18:1 acyl-LPA and the short chain analogs were essentially performed in the same manner except that both lipids were added simultaneously and the yeast was allowed to grow for the standard seven-hour time period. ERK immune complex kinase assays- C3H/10T½ cells were cultured in Basal Medium Eagle (BME, Gibco)+10% heat inactivated fetal calf serum until quiescent in 6 cm dishes. Cultures were serum starved for 18 hours in BME and stimulated with LPA or an LPA analog for 5 minutes. Dishes were placed on ice, washed with ice cold PBS and lysed in 500 μL lysis buffer (20 mM Tris pH8.0, 137 mM NaCl, 1mM EGTA, 1% Triton X-100, 10% glycerol, 15 mM MgCl2, 1 mM NaVO4, 50 mM NaF, 1mM Pefabloc, 20 μM Leupeptin, 10 μg/mL Aprotinin). To 200 μg total protein, 2 μL anti-ERK1 and 2 μL anti-ERK2 (Santa Cruz) plus 20 μL protein G-agarose beads (Boehringer-Mannheim, 50% slurry) were added and incubated with continuous rocking for two hours at 4° C. The agarose bead-ERK immune complexes were washed twice with 1mL lysis buffer then once in 1mL kinase buffer (30 mM Tris pH 8.0, 20 mM MgCl2, 2 mM MnCl2) and then drained to dryness with a fine gauge Hamilton syringe. The kinase reaction was started by adding 30 μL kinase buffer containing 2 μg myelin basic protein (MBP, Sigma), 10 μM cold ATP and 2.5 μCi [^32P]γ-ATP (Amersham). The reaction was incubated for 25 minutes at 30° C. and then stopped by the addition of 10 μL hot 4×-sample buffer. The phosphorylated MBP was resolved on a 14% SDS-PAGE gel (Novex), stained, dried and the Coomassie Brilliant Blue-stained band was excise and counted on a liquid scintillation counter (Beckman).

[2] = target: T1, Edg2 receptor; settings: cited from earlier work; for activation of FUS1::lacZ (previously known): yeast expressing the Edg2 receptor, previously known results
[3] = tested on: ERK1 and ERK2; assay: ERK immune complex kinase assay in C3H/10T½ fibroblasts; assay type: cell-based, Murine; settings: C3H/10T½ fibroblasts treated with 10M analogue, stimulated 5 minutes
Procedure: Since Edg2 couples to Gpa1, this receptor could also couple to Gi in mammalian cells as well. […] Murine C3H/10T½ fibroblasts were treated with […] analogue and assayed for induction of ERK½ activity. […] The structural requirements of LPA with respect to ERK activation are quite different from the yeast Edg2 lacZ reporter assay. For example, the hydroxyl on the sn-2 carbon of the glycerol can be substituted with little effect in the Edg2-mediated activation of FUS1::lacZ whereas in ERK activation, loss of this hydroxyl almost completely abolishes activity.
LacZ assays in response to lysophosphatidic acid and LPA analogs- JEY5+pJE15 was grown on SC media containing either 2% galactose or 2% glucose lacking uracil to an approximate O.D. of 0.1-0.5 prior to the addition of lipid or α-factor. […] Color development was measured at A420 and normalized to A600. Units were expressed as Miller Units. […] The phosphorylated MBP was resolved on a 14% SDS-PAGE gel (Novex), stained, dried and the Coomassie Brilliant Blue-stained band was excise and counted on a liquid scintillation counter (Beckman).

[4] = tested on: ERK; assay: ERK activity in A549 lung carcinoma overexpressing Edg2 mRNA; assay type: cell-based; settings: overexpresses Edg2 mRNA
Excerpt: Edg2 is not involved in the activation of the MAPKinase ERK. This is somewhat surprising since Edg2 coupled to the endogenous Saccharomyces G-protein, it was reasonable to conclude that Edg2 may couple to mammalian Gi heterotrimeric G-proteins. If this were true, then Edg2 would activate ERK, which is activated by LPA in a pertusis toxin-dependent manner. However, the SAR of LPA for ERK activation is completely different from the SAR of LPA-mediated activation of FUS1::lacZ and calcium mobilization. It is unlikely that expressing this receptor in yeast has changed its ligand binding characteristics. The somatostatin 2A receptor when expressed in yeast maintains it's binding profiles when compared with mammalian cells.

[5] = tested on: MDA MB 231 cells; settings: cited from earlier work
[6] = tested on: MDA MB 231 cells; settings: cited from earlier work; remark: listed apart in the source

| Molecule | activation of FUS1::lacZ by 18:1 analogs (FIG. 4) [1] | activation of FUS1::lacZ (previously known) [2] | further results |
| --- | --- | --- | --- |
| CCCCCCCCCCCCCCCC(=O)OC[C@@H](O)COP(=O)(O)O [Compound 4] |  | significant activity |  |
| CCCCCCCC/C=C\CCCCCCCC(=O)OCC(COP(=O)(OC)OC)OC (racemic) [Compound 18, Dimethyl 3-O-oleoyl-2-O-methyl-rac-glycero-1-phosphate] | had less lacZ activity |  |  |
| O-acyl-2-hydroxyl-sn-glycero-3-phosphate [LPA] |  |  | stimulation of ERK activity [4]: does not stimulate ERK activity; EC50 ([2]; yeast expressing Edg2, FUS1::lacZ reporter, read-out: E.C.50 of the yeast assay): 20 µM |
| CCCCCCCCCCCCCC(=O)OC[C@@H](O)COP(=O)(O)O [Compound 3, reference compound] |  |  | activation of FUS1::lacZ, dependence on acyl chain length (FIG. 2) ([1]; yeast expressing the Edg2 receptor, acyl-LPA chain length analogs): inactive |
| CCCCCCCCCC(=O)OC[C@@H](O)COP(=O)(O)O [Compound 2] |  | inactive |  |
| CCCCCCCC/C=C\CCCCCCCC(=O)OCCCOP(=O)(O)O [Compound 12, 1-(3-propyl oleoate) phosphate] | retained some FUS1::lacZ activity; also recorded: increased activity significantly; also recorded: does activate FUS1::lacZ |  | activation of ERK½ (FIG. 5) [3]: does not activate ERK; inhibition of cAMP accumulation [5]: does not inhibit cAMP accumulation; calcium mobilization [6]: only slightly mobilizes calcium |
| CCCCCC(=O)OC[C@@H](O)COP(=O)(O)O [Compound 1] |  | inactive |  |
| CCCCCCCCCCCCCCCCCC(=O)OC[C@@H](O)COP(=O)(O)O [Compound 5] |  | significant activity |  |
| CCCCCCCC/C=C\CCCCCCCC(=O)OC[C@@H](O)COP(=O)(O)O [Compound 6] |  | most active |  |

Second part, led by results:

| activation of FUS1::lacZ by 18:1 analogs (FIG. 4) [1] | Molecule | activation of FUS1::lacZ (previously known) [2] | further results |
| --- | --- | --- | --- |
| inactive | CCCCCCCC/C=C\CCCCCCCCOCCCOP(=O)(OC)OC [Compound 29, Dimethyl 3-oleyloxypropyl-1-phosphate] |  |  |
| inactive | CCCCCCCC/C=C\CCCCCCCCOCC(O)COP(=O)(O)O (racemic) [Compound 26, 3-O-Oleyl-rac-glycero-1-phosphate] |  | activation of ERK½ (FIG. 5) [3]: can activate ERK almost as well as the ester form |
| had less lacZ activity | CCCCCCCC/C=C\CCCCCCCC(=O)OCCCOP(=O)(OC)OC [Compound 11, Dimethyl 1-(3-propyl oleoate) phosphate] |  |  |
| still retained some lacZ activity | CCCCCCCC/C=C\CCCCCCCC(=O)OCC(CO)OC (racemic) [Compound 17, 1-O-Oleoyl-2-O-methyl-rac-glycerol] |  |  |
| inactive | CCCCCCCC/C=C\CCCCCCCCOCC(COP(=O)(O)O)OC (racemic) [Compound 36, 3-O-Oleyl-2-O-methyl-rac-glycero-1-phosphate] |  |  |
| retained some FUS1::lacZ activity | CCCCCCCC/C=C\CCCCCCCC(=O)OCC(Br)COP(=O)(O)O (racemic) [Compound 23, 3-O-Oleoyl-2-deoxy-2-bromo-rac-glycero-1-phosphate] |  |  |
| still retained some lacZ activity | CCCCCCCC/C=C\CCCCCCCC(=O)OCCCO [Compound 10, 3-Hydroxypropyl oleate] |  |  |
